Results published in patent US10974081B2, “Treatment and prevention of sleep disorders” (Purdue Pharma L.P., priority 2016, dated 2021).
Read-outs that look alike come from different tables or passages of the source.

Assays:
[1] = Plasma concentration (pharmacokinetics) after single oral dose in humans; assay type: in vivo, human; conditions: for half-life / Tmax / AUC(0-t) / Cmax / AUC(0-inf): male, human, plasma; for half-life / Tmax: po; for AUC(0-inf): read-out: AUCinf Mean
Description: The plasma concentration of Compound (1D) was evaluated in humans for up to 36 hours after administration of a single oral dose of 3, 10, or 30 mg of Compound (1D) in the form of a methyl cellulose suspension. Four healthy male subjects were administered each dose.
FIG. 19A provides a plot of the human plasma concentration of Compound (1D) on a linear scale versus linear time in hours at each dose: 3, 10, and 30 mg. FIG. 19B provides the same results in a plot of human plasma concentration of Compound (1D) on a logarithmic scale versus linear time at each dose. The target plasma exposure indicated in FIG. 19A relates to the effective dose in 80% of subjects from rat modeling results.

[2] = in vivo; conditions: male, Crl:CD(SD), rat, po, no-observed-adverse-effect-level (NOAEL)
[3] = system: rat plasma; assay: Rat protein binding, equilibrium dialysis of rat plasma; assay type: in vitro ADME; conditions: 24 hours dialysis at 37° C.
Description: The extent of in vitro binding of Compound (1F), […], or W-212393 to rat plasma was determined as an assessment of the protein binding of each compound, i.e., compound unavailable for modulating receptor activity. Plasma from rats containing a tested compound in one chamber of a dialysis cell was dialyzed with PBS in the other chamber; thereafter, the supernatant from each chamber was analyzed for the concentration of the tested compound present. A cell suitable for equilibrium dialysis was used in the determinations. The dialysis membrane described in Example 10 (with molecular mass cutoff of 12,000-14,000 Da) separated the dialysis cell into two chambers. The membrane was soaked with purified water and PBS before being placed into the dialysis cell. 4 μL of an iv formulation of each tested compound was added to 996 μL of rat plasma, the latter obtained using syringe containing heparin and EDTA by the procedure described in Example 10, to provide a plasma sample with a tested compound concentration of 2 μg/mL. 450 μL of the plasma sample was applied to one chamber (plasma chamber) of the dialysis cell. A 450 μL aliquot of PBS was applied to the other chamber (PBS chamber) of the dialysis cell. The dialysis study was conducted in duplicate for each tested compound. After 24 hours of equilibrium dialysis at 37° C., 30 μL of liquid from the plasma chamber of the dialysis cell was collected and to this was added 270 μL of fresh PBS (this combination was designated Sample “1”). Then, 270 μL of liquid from the PBS chamber of the dialysis cell was collected and to this was added 30 μL of control rat plasma (i.e., rat plasma never exposed to any test compound, this combination was designated Sample “2”). Thereafter, each sample was mixed well and stored in a freezer until the next analysis step. After the protein precipitated in the freezer, each supernatant thusly obtained was analyzed by LC-MS-MS for unbound test compound. […] Thereafter, the percentage of rat protein-bound (“RPB”) tested compound was calculated as follows: […]

[4] = In vivo functional observational battery (FOB); conditions: male, Crl:CD(SD), rat, in vivo, po

O=C(O)c1nc2ccccc2n([C@H]2C[C@H]3CCC[C@@H](C2)N3C2CC3CCCC(C3)C2)c1=O (stereo partly shown) [Compound (1D)]
AUCinf Maximum ([1]; 3 mg single oral dose): 176 ng·h/mL
AUCinf Minimum ([1]; 3 mg single oral dose): 144 ng·h/mL
AUCt Maximum ([1]; 3 mg single oral dose): 168 ng·h/mL
AUCt Minimum ([1]; 3 mg single oral dose): 135 ng·h/mL
Cmax Maximum ([1]; 3 mg single oral dose): 34 ng/mL
Cmax Minimum ([1]; 3 mg single oral dose): 23 ng/mL
t1/2 Minimum ([1]; 3 mg single oral dose): 2.1 h
tmax Maximum ([1]; 3 mg single oral dose): 2.0 h
AUCinf Maximum ([1]; 10 mg single oral dose): 557 ng·h/mL
AUCinf Minimum ([1]; 10 mg single oral dose): 320 ng·h/mL
AUCt Maximum ([1]; 10 mg single oral dose): 550 ng·h/mL
AUCt Minimum ([1]; 10 mg single oral dose): 300 ng·h/mL
Cmax Maximum ([1]; 10 mg single oral dose): 98 ng/mL
Cmax Minimum ([1]; 10 mg single oral dose): 56 ng/mL
t1/2 Maximum ([1]; 10 mg single oral dose): 3.0 h
t1/2 Minimum ([1]; 10 mg single oral dose): 2.4 h
tmax Maximum ([1]; 10 mg single oral dose): 2.0 h
tmax Minimum ([1]; 10 mg single oral dose): 1.0 h
AUCinf Maximum ([1]; 30 mg single oral dose): 714 ng·h/mL
AUCinf Minimum ([1]; 30 mg single oral dose): 398 ng·h/mL
AUCt Maximum ([1]; 30 mg single oral dose): 708 ng·h/mL
AUCt Minimum ([1]; 30 mg single oral dose): 388 ng·h/mL
Cmax Maximum ([1]; 30 mg single oral dose): 106 ng/mL
Cmax Minimum ([1]; 30 mg single oral dose): 69 ng/mL
t1/2 Maximum ([1]; 30 mg single oral dose): 3.2 h
tmax Maximum ([1]; 30 mg single oral dose): 3.0 h
tmax Minimum ([1]; 30 mg single oral dose): 1.0 h
gastrointestinal absorption ([1]; across the three doses): rapid gastrointestinal absorption
half-life ([1]; 3 mg, 3 mg single oral dose, read-out: t1/2 Mean (converted)): 2.3 h
Tmax ([1]; 3 mg, 3 mg single oral dose, read-out: tmax Mean): 1.6 h
Tmax ([1]; 3 mg, 3 mg single oral dose, read-out: tmax Median): 1.5 h
half-life ([1]; 10 mg, 10 mg single oral dose, read-out: t1/2 Mean (converted)): 2.6 h
Tmax ([1]; 10 mg, 10 mg single oral dose, read-out: tmax Mean): 1.5 h
half-life ([1]; 30 mg, 30 mg single oral dose, read-out: t1/2 Mean (converted)): 2.8 h
Tmax ([1]; 30 mg, 30 mg single oral dose, read-out: tmax Mean): 1.8 h
Tmax ([1]; 30 mg, 30 mg single oral dose, read-out: tmax Median): 1.5 h
half-life ([1]; 30 mg, 3, 10 and 30 mg single oral doses, read-out: t1/2, minimum to maximum across the three doses): 2.1 to 3.2 h
Tmax ([1]; 30 mg, 3, 10 and 30 mg single oral doses, read-out: tmax, minimum to maximum across the three doses): 1 to 3 h
AUC(0-t) ([1]; 3 mg single oral dose): 154 ng·h/mL
Cmax ([1]; 3 mg single oral dose): 30 ng/mL
AUC(0-inf) ([1]; 3 mg single oral dose): 161 ng·h/mL
AUC(0-t) ([1]; 10 mg single oral dose): 438 ng·h/mL
Cmax ([1]; 10 mg single oral dose): 77 ng/mL
AUC(0-inf) ([1]; 10 mg single oral dose): 447 ng·h/mL
AUC(0-t) ([1]; 30 mg single oral dose): 505 ng·h/mL
Cmax ([1]; 30 mg single oral dose): 83 ng/mL
AUC(0-inf) ([1]; 30 mg single oral dose): 512 ng·h/mL
NOAEL [2]: 600 mg/kg

CNC(=O)Cn1c(=O)n(C2CCN([C@@H]3Cc4cccc5cccc3c45)CC2)c2ccccc21 [Compound W-212393]
stability in rat plasma during the determination [3]: unstable in plasma
brain penetration relative to average of Compound (1C) (0.5/0.033): at least 15 times
brain penetration relative to maximum value of Compound (1C) (0.5/0.040): at least 13 times
NOAEL [4]: 1 mg/kg
